# Test results published in publication PMC3914206.
# Legend:
# Assay type in all cases: binding
# panel of 442 kinases [1] = molecular target: T1, panel of 442 kinases (Homo sapiens, UniProt P07332); conditions: Compound Concentration 10 µM
# T1 construct: purchased KINOMEscan
# Source text: (§1) We assessed the selectivity of members of this scaffold using the KINOMEscan methodology across a near comprehensive panel of 442 kinases [[18,27]].
# panel of 442 kinases [2] = molecular target: T2, panel of 442 kinases (Homo sapiens, UniProt P68400); conditions: Compound Concentration 10 µM
# T2 construct: purchased KINOMEscan
# Source text: as §1
# panel of 442 kinases [3] = molecular target: T3, panel of 442 kinases (Homo sapiens, UniProt Q16659); conditions: Compound Concentration 10 µM
# T3 construct: purchased KINOMEscan
# Source text: as §1
# panel of 442 kinases [4] = molecular target: T4, panel of 442 kinases (Homo sapiens, UniProt Q8TDR2); conditions: kinase STK35; compound concentration 10 µM
# T4 construct: purchased KINOMEscan
# Source text: as §1
# T4 sequence (Q8TDR2 whole entry): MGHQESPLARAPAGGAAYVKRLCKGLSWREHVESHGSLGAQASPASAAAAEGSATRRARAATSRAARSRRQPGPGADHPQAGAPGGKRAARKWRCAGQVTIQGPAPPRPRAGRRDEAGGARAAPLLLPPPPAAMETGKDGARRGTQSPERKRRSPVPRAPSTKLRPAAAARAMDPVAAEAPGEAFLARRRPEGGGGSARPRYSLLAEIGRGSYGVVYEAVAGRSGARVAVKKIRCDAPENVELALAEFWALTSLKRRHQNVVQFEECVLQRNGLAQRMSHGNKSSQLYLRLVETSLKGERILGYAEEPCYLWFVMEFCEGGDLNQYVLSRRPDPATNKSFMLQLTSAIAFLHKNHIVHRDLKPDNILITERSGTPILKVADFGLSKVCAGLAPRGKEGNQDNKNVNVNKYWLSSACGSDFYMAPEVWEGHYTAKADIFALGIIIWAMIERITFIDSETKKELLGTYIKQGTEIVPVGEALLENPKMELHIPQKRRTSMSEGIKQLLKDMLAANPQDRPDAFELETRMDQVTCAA
# T3 sequence (Q16659 whole entry): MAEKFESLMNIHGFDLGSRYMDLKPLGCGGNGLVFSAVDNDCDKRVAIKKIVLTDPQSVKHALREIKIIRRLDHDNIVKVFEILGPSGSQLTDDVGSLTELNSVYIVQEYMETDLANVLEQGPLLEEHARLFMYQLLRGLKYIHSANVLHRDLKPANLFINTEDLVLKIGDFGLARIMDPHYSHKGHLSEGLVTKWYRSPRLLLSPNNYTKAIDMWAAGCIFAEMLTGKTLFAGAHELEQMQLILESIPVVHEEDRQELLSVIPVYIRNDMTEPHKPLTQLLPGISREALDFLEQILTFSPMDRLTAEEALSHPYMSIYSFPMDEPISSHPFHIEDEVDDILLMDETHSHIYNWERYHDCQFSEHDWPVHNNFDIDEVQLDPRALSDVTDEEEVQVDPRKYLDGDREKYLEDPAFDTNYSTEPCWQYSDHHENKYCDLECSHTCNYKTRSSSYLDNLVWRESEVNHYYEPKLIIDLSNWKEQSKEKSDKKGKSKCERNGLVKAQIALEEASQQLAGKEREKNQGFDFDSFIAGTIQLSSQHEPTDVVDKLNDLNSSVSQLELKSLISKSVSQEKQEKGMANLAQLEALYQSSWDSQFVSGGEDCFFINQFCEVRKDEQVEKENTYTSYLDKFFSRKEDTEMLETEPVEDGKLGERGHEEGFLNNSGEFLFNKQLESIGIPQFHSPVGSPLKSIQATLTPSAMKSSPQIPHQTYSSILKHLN
# T2 sequence (P68400 whole entry): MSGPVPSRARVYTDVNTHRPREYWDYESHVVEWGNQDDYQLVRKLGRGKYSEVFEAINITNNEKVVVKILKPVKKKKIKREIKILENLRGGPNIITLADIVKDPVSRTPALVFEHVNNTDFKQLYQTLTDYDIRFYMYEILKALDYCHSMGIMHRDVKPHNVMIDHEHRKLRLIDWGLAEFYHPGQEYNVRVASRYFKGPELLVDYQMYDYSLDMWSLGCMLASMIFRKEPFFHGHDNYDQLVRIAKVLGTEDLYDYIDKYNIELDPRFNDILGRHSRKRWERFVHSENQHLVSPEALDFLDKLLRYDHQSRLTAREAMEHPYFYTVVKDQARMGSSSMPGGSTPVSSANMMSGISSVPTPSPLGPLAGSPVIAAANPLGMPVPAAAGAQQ
# T1 sequence (P07332 whole entry): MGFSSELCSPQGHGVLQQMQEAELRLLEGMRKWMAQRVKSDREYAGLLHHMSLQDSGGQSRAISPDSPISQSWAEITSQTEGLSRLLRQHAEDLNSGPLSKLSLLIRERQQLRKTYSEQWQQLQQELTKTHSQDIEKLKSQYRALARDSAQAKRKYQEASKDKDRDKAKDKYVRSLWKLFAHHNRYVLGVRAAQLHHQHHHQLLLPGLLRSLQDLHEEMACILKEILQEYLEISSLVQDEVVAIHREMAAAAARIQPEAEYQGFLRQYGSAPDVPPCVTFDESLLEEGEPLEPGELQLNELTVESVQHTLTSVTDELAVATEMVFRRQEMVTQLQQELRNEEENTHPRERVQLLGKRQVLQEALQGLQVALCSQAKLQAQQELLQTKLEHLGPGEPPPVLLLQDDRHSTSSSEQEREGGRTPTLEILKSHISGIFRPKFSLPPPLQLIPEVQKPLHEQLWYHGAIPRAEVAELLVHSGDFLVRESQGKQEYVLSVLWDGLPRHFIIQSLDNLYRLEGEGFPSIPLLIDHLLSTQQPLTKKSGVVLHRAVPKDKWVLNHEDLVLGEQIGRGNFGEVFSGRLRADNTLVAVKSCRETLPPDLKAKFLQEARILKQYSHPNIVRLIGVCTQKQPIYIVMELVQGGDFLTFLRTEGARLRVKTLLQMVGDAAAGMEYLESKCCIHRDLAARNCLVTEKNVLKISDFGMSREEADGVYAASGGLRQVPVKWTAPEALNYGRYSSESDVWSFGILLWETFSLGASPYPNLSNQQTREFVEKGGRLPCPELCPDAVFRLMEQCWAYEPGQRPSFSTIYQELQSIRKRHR
SMILES,KINOMEscan: FES (panel of 442 kinases [1]),KINOMEscan: CSNK2A1 (panel of 442 kinases [2]),KINOMEscan: ERK3 (panel of 442 kinases [3]),"% Ctrl, STK35 (panel of 442 kinases [4]) [% Ctrl]"
COc1cc(C(=O)N2CCC(N3CCN(C)CC3)CC2)ccc1Nc1ncc2c(n1)N(C)c1ccccc1C(=O)N2C [15 (LRRK2-IN-1)],84,100,100,100
COc1cc(C(=O)N2CCC(N3CCN(C)CC3)CC2)ccc1Nc1ncc2c(n1)N1CCc3cccc(c31)C(=O)N2C [Compound 24],–,–,–,100
"COc1cc(C(=O)N2CCC(N3CCN(C)CC3)CC2)ccc1Nc1ncc2c(n1)N(C1CCCC1)c1ccccc1C(=O)N2C [Compound 25, 11-cyclopentyl-2-((2-methoxy-4-(4-(4-methylpiperazin-1-yl)piperidine-1-carbonyl)phenyl)amino)-5-methyl-5H-benzo[e]pyrimido[5,4-b][1,4]diazepin-6(11H)-one]",89,100,100,100
CCOc1cc(C(=O)N2CCC(N3CCN(C)CC3)CC2)ccc1Nc1ncc2c(n1)N(C1CCCC1)c1ccccc1C(=O)N2C [Compound 26],100,89,100,96
